Values of other authors, collected in patent US20080279914A1, “Transdermal composition comprising piroxicam-inorganic material complex and patch system comprising the same” (priority 2006, published 2008).

Details: orally administered

For CN1C(C(=O)Nc2ccccn2)=C(O)c2ccccc2S1(=O)=O [piroxicam], the “drug discharged unchanged in the urine” value is listed as “less than 5%”.
